Test results reported in patent publication US20140135357A1, “DOSE REGIME FOR CAMPTOTHECIN DERIVATIVES” (Taiwan Liposome Company, Ltd., priority 2012, published 2014).
“Also recorded” adds a separate entry of the source. Where two headings read alike, the source gives them in different places. Values belong to the compound of their own block, whether it stands above or below them.

Assays:
clinical = conditions: human, in vivo
Protocol: (§1) A non-randomized phase I clinical trial was conducted at 4 institutions in the US and Taiwan.
(§2) Patients were included in this trial if they are over the age of 18, with advanced cancer and the ECOG performance status is 0 or 1. […] Patients were excluded from the study if they have previously received more than 3 regimens of chemotherapy, or if they have received chemotherapy or radiotherapy within 4 weeks of the trial recruitment.
(§3) Eligible patients were given the pharmaceutical composition of the present invention, comprising a mixture of TLC388HCl and mPEG2000-DSPE in a molar ratio of 1:0.7 to 1:0.9 (known as Lipotecan®). […] The pharmaceutical composition was administered as a 30-min IV infusion, on days 1, 8, and 15 of a 28-day cycle (i.e. 3 IV infusions per 28-day cycle).
(§4) Serum samples were collected from the patients for pharmacokinetic analysis on day 1, day 8 and day 15 of Cycles 1 and 2, at the following times:
(§5) Post IV infusion: (Day 1 and 8 of Cycle 1): 33 min; 40 min; 50 min; 1 h; 1 h 30 min; 2 h; 4 h and 8 h. Post IV infusion (Day 15 of Cycle 1 and Day 1, 8, and 15 of Cycle 2): 4 h. Patients were assessed every 8 weeks, after 2 cycles of treatments.
(§6) During the 2-cycle study period, the patients were examined regularly for the following outcomes: • Side effect/DLT; • The pK profiles of the (S,S) and (S,R) diastereomers of TLC388HCl, its 3 metabolites (TLC-U1, TLC-U2 and Topotecan) on day 1 and day 8 of the treatment cycle; and • Anti-cancer efficacy.

[1] = in-vitro study of anti-proliferative activity; assay type: cell-based
[2] = human, in vivo; for time at which peak plasma concentrations (Cmax) were achieved / time of rapid rise of the metabolites in the serum after starting the infusion: iv
Protocol: as §1, §2, §3, §4, §5, §6

topoisomerase I = target: T1, topoisomerase I (Homo sapiens, UniProt P11387); assay: Topoisomerase I inhibition; assay type: biochemical
T1 sequence (P11387 1-765): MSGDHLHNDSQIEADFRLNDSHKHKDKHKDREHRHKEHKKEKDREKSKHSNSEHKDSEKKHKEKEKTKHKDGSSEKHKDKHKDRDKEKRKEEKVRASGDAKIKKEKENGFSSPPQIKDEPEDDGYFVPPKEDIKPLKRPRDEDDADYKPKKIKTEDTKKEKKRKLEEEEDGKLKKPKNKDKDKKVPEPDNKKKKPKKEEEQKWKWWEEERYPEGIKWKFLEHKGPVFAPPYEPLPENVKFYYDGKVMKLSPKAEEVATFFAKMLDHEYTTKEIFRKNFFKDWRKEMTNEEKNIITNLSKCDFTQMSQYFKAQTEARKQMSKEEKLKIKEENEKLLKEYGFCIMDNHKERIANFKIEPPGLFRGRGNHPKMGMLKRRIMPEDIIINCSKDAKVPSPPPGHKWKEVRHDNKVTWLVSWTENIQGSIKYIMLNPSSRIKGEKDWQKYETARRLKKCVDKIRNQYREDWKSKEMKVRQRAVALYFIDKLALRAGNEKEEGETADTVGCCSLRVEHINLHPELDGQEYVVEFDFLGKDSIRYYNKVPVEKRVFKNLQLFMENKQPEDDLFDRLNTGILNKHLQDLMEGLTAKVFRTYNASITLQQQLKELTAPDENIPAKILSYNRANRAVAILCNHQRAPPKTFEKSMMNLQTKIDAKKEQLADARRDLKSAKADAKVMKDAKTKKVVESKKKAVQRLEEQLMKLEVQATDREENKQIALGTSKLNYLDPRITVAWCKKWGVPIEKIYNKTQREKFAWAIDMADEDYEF

AUC0-t (clinical; 1.5 mg/m2, AUC0-t): 3.74 ng·h/mL
Cmax (clinical; 1.5 mg/m2, Cmax): 3.34 ng/mL
Tmax (clinical; 1.5 mg/m2, Tmax): 37.7 min
half-life (clinical; 1.5 mg/m2, t1/2): 138 min
AUC0-t (clinical; 3 mg/m2, AUC0-t): 7.91 ng·h/mL
Cmax (clinical; 3 mg/m2, Cmax): 5.14 ng/mL
Tmax (clinical; 3 mg/m2, Tmax): 28 min
half-life (clinical; 3 mg/m2, t1/2): 140 min
AUC0-t (clinical; 6 mg/m2, AUC0-t): 11.6 ng·h/mL
Cmax (clinical; 6 mg/m2, Cmax): 7.52 ng/mL
Tmax (clinical; 6 mg/m2, Tmax): 28 min
half-life (clinical; 6 mg/m2, t1/2): 148 min
AUC0-t (clinical; 9 mg/m2, AUC0-t): 15.5 ng·h/mL
Cmax (clinical; 9 mg/m2, Cmax): 11.5 ng/mL
Tmax (clinical; 9 mg/m2, Tmax): 30.2 min
half-life (clinical; 9 mg/m2, t1/2): 195 min
AUC0-t (clinical; 13.5 mg/m2): 29.1 ng·h/mL
Cmax (clinical; 13.5 mg/m2): 18.1 ng/mL
Tmax (clinical; 13.5 mg/m2): 22 min
half-life (clinical; 13.5 mg/m2): 147 min
AUC0-t (clinical; 20 mg/m2, AUC0-t): 33.6 ng·h/mL
Cmax (clinical; 20 mg/m2, Cmax): 28.6 ng/mL
Tmax (clinical; 20 mg/m2, Tmax): 29 min
half-life (clinical; 20 mg/m2, t1/2): 149 min
AUC0-t (clinical; 30 mg/m2, AUC0-t): 49.5 ng·h/mL
Tmax (clinical; 30 mg/m2, Tmax): 25.5 min
half-life (clinical; 30 mg/m2, t1/2): 139 min
AUC0-t (clinical; 35 mg/m2, AUC0-t): 88.2 ng·h/mL
Cmax (clinical; 35 mg/m2, Cmax): 48.5 ng/mL
Tmax (clinical; 35 mg/m2, Tmax): 36.5 min
half-life (clinical; 35 mg/m2, t1/2): 188 min
AUC0-t (clinical; 40 mg/m2, AUC0-t): 74.1 ng·h/mL
Cmax (clinical; 40 mg/m2, Cmax): 52.5 ng/mL
Tmax (clinical; 40 mg/m2, Tmax): 26.7 min
half-life (clinical; 40 mg/m2, t1/2): 157 min
AUC0-t (clinical; 50 mg/m2, AUC0-t): 101 ng·h/mL
Cmax (clinical; 50 mg/m2, Cmax): 65.7 ng/mL
Tmax (clinical; 50 mg/m2, Tmax): 23.4 min
half-life (clinical; 50 mg/m2, t1/2): 153 min
AUC0-t (clinical; 60 mg/m2, AUC0-t): 107 ng·h/mL
Cmax (clinical; 60 mg/m2, Cmax): 87.4 ng/mL
Tmax (clinical; 60 mg/m2, Tmax): 27 min
half-life (clinical; 60 mg/m2, t1/2): 153 min
Tmax (clinical; 60 mg/m2, tmax): 28.2 ± 8.4 min
half-life (clinical; T1/2): > 150 min
Tmax (clinical; Tmax): < 60 min
Dose-normalized AUClast [2]: 4.05 ± 1.34 nM*h/(mg/m^2)
Dose-normalized Cmax [2]: 2.84 ± 0.97 nM/(mg/m^2)
difference between PK profiles on Day 1 and Day 8 [2]: no significant difference
dose proportionality of exposure [2]: roughly dose proportional
AUC0-t ([2]; 1.5 mg/m2): 2.872 (0.882) hr · ng/mL
Cmax ([2]; 1.5 mg/m2): 2.117 (0.468) ng/mL
Tmax ([2]; 1.5 mg/m2): 0.505 (0.039) hr
t1/2 ([2]; 1.5 mg/m2): 1.953 (0.698) hr
AUC0-t ([2]; 3 mg/m2): 5.625 (1.972) hr · ng/mL
AUC0-t ([2]; 6 mg/m2): 11.599 (1.437) hr · ng/mL
AUC0-t ([2]; 9 mg/m2): 16.581 (3.976) hr · ng/mL
AUC0-t ([2]; 20 mg/m2): 29.023 (7.443) hr · ng/mL
AUC0-t ([2]; 30 mg/m2): 78.761 (50.88) hr · ng/mL
AUC0-t ([2]; 35 mg/m2): 102.97 (20.18) hr · ng/mL
Cmax ([2]; 35 mg/m2): 74.800 (42.82) ng/mL
Tmax ([2]; 35 mg/m2): 0.592 (0.091) hr
t1/2 ([2]; 35 mg/m2): 3.347 (1.219) hr
AUC0-t ([2]; 40 mg/m2): 72.758 (49.22) hr · ng/mL
AUC0-t ([2]; 50 mg/m2): 97.314 (38.34) hr · ng/mL
AUC0-t ([2]; 60 mg/m2): 109.80 (25.72) hr · ng/mL
time at which peak plasma concentrations (Cmax) were achieved [2]: within one hour
time of rapid rise of the metabolites in the serum after starting the infusion [2]: ≤ 15 min
topoisomerase I inhibition (topoisomerase I): weak topoisomerase I Inhibitors
Compound: CC[C@@]1(OC(=O)[C@H](C)O)C(=O)OCc2c1cc1n(c2=O)Cc2cc3c(CN(C)C)c(O)ccc3nc2-1 [TLC-U2, S,S-topotecan lactate]
anti-proliferative activity [1]: comparable to that of TLC 388HCl; also recorded: more potent than that of TLC-U1

AUC0-t (clinical; 1.5 mg/m2, AUC0-t): 13 ng·h/mL
Cmax (clinical; 1.5 mg/m2, Cmax): 11.2 ng/mL
Tmax (clinical; 1.5 mg/m2, Tmax): 37.7 min
half-life (clinical; 1.5 mg/m2, t1/2): 168 min
AUC0-t (clinical; 3 mg/m2, AUC0-t): 24.6 ng·h/mL
Cmax (clinical; 3 mg/m2, Cmax): 17.1 ng/mL
Tmax (clinical; 3 mg/m2, Tmax): 28 min
half-life (clinical; 3 mg/m2, t1/2): 159 min
AUC0-t (clinical; 6 mg/m2, AUC0-t): 44.3 ng·h/mL
Cmax (clinical; 6 mg/m2, Cmax): 28.5 ng/mL
Tmax (clinical; 6 mg/m2, Tmax): 28 min
half-life (clinical; 6 mg/m2, t1/2): 174 min
AUC0-t (clinical; 9 mg/m2, AUC0-t): 48.6 ng·h/mL
Cmax (clinical; 9 mg/m2, Cmax): 37.8 ng/mL
Tmax (clinical; 9 mg/m2, Tmax): 33.8 min
half-life (clinical; 9 mg/m2, t1/2): 221 min
AUC0-t (clinical; 13.5 mg/m2): 99.1 ng·h/mL
Cmax (clinical; 13.5 mg/m2): 56.3 ng/mL
Tmax (clinical; 13.5 mg/m2): 18.5 min
half-life (clinical; 13.5 mg/m2): 171 min
AUC0-t (clinical; 20 mg/m2, AUC0-t): 112 ng·h/mL
Cmax (clinical; 20 mg/m2, Cmax): 87.4 ng/mL
Tmax (clinical; 20 mg/m2, Tmax): 24.3 min
half-life (clinical; 20 mg/m2, t1/2): 177 min
AUC0-t (clinical; 30 mg/m2, AUC0-t): 163 ng·h/mL
Cmax (clinical; 30 mg/m2, Cmax): 105 ng/mL
Tmax (clinical; 30 mg/m2, Tmax): 27.2 min
half-life (clinical; 30 mg/m2, t1/2): 160 min
AUC0-t (clinical; 35 mg/m2, AUC0-t): 340 ng·h/mL
Cmax (clinical; 35 mg/m2, Cmax): 196 ng/mL
Tmax (clinical; 35 mg/m2, Tmax): 38.3 min
half-life (clinical; 35 mg/m2, t1/2): 320 min
AUC0-t (clinical; 40 mg/m2, AUC0-t): 283 ng·h/mL
Tmax (clinical; 40 mg/m2, Tmax): 23.5 min
half-life (clinical; 40 mg/m2, t1/2): 177 min
AUC0-t (clinical; 50 mg/m2, AUC0-t): 365 ng·h/mL
Cmax (clinical; 50 mg/m2, Cmax): 242 ng/mL
Tmax (clinical; 50 mg/m2, Tmax): 26.2 min
half-life (clinical; 50 mg/m2, t1/2): 174 min
AUC0-t (clinical; 60 mg/m2, AUC0-t): 421 ng·h/mL
Cmax (clinical; 60 mg/m2, Cmax): 347 ng/mL
Tmax (clinical; 60 mg/m2, Tmax): 21.4 min
half-life (clinical; 60 mg/m2, t1/2): 174 min
Tmax (clinical; 60 mg/m2, tmax): 27 ± 10.2 min
half-life (clinical; T1/2): > 150 min
Tmax (clinical; Tmax): < 60 min
Cmax and AUCo-t of TLC-U1 relative to TLC-U2 [2]: 3-4 times
Cmax and AUCo-t of TLC-U1 relative to topotecan [2]: approximately 2 times
Dose-normalized AUClast [2]: 14.49 ± 4.46 nM*h/(mg/m^2)
Dose-normalized Cmax [2]: 10.15 ± 3.87 nM/(mg/m^2)
difference between PK profiles on Day 1 and Day 8 [2]: no significant difference
dose proportionality of exposure [2]: roughly dose proportional
AUC0-t ([2]; 1.5 mg/m2): 10.869 (1.365) hr · ng/mL
Cmax ([2]; 1.5 mg/m2): 6.897 (1.325) ng/mL
Tmax ([2]; 1.5 mg/m2): 0.483 (0.000) hr
t1/2 ([2]; 1.5 mg/m2): 2.687 (0.329) hr
AUC0-t ([2]; 3 mg/m2): 16.705 (4.893) hr · ng/mL
AUC0-t ([2]; 6 mg/m2): 46.533 (10.74) hr · ng/mL
AUC0-t ([2]; 9 mg/m2): 54.481 (10.70) hr · ng/mL
AUC0-t ([2]; 20 mg/m2): 101.46 (37.00) hr · ng/mL
AUC0-t ([2]; 30 mg/m2): 190.59 (33.45) hr · ng/mL
AUC0-t ([2]; 35 mg/m2): 406.54 (77.86) hr · ng/mL
Cmax ([2]; 35 mg/m2): 327.75 (216.8) ng/mL
Tmax ([2]; 35 mg/m2): 0.546 (0.087) hr
t1/2 ([2]; 35 mg/m2): 4.064 (1.658) hr
AUC0-t ([2]; 40 mg/m2): 285.94 (207.9) hr · ng/mL
AUC0-t ([2]; 50 mg/m2): 349.27 (131.8) hr · ng/mL
AUC0-t ([2]; 60 mg/m2): 417.98 (54.75) hr · ng/mL
time at which peak plasma concentrations (Cmax) were achieved [2]: within one hour
time of rapid rise of the metabolites in the serum after starting the infusion [2]: ≤ 15 min
topoisomerase I inhibition (topoisomerase I): weak topoisomerase I Inhibitors
Compound: CC[C@@]1(OC(=O)[C@@H](C)O)C(=O)OCc2c1cc1n(c2=O)Cc2cc3c(CN(C)C)c(O)ccc3nc2-1 [TLC-U1, S,R-topotecan lactate]
